Where a name gives a salt, the structure may show the parent alone.
Columns and labels:
[1] = molecular target: T1, Rat Brain Tissue MAO-B (Rattus norvegicus, UniProt P19643); assay: Rat brain tissue MAO-B activity after oral administration; format: in vivo, Sprague Dawley rats; details: single oral dose 0.6 mg/kg, Sprague Dawley rat brain tissue, FIG. 3
T1 construct: Brain tissue was homogenized in ice-cold Tris buffer; from tissue; host or cells: brain of Sprague Dawley rats (mitochondrial extract)
T1 sequence (P19643 1-520): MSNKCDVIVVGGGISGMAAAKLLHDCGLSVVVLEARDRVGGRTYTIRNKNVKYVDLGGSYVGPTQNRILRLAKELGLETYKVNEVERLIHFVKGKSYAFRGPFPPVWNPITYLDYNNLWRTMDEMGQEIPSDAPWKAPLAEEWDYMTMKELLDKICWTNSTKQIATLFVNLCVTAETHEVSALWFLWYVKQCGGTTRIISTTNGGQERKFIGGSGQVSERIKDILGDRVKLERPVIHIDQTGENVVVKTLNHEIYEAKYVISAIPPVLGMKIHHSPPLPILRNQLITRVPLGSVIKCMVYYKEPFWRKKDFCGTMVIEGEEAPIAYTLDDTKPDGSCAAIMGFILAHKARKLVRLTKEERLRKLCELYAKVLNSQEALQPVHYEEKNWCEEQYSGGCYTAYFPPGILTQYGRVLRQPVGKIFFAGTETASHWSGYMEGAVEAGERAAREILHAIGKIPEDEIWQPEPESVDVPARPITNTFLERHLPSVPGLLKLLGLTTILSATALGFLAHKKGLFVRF
Description: Sprague Dawley rats were orally administered the compound under study and sacrificed at various time points and gonadal fat and brain tissue collected.
Brain tissue was homogenized in ice-cold Tris buffer (10 mM Tris·HCl, 0.5 mM EDTA, sucrose 250 mM, pH 7.4). Homogenate was then centrifuged at 4,000 rpm for 3 minutes at 4° C. The resultant supernatant was transferred and centrifuged again at 4,000 rpm for 3 minutes at 4° C. Process repeated one last time, this time at 10,000 rpm for 8 minutes. Supernatant discarded and the resultant pellet containing the mitochondrial extract re-suspended in 0.1 M sodium phosphate buffer solution (1:3 ratio). MAO-B activity was determined by using a specific MAO-A inhibitor (e.g. clorgyline) and a SSAO/VAP-1 inhibitor (e.g. semicarbazide) to establish the high signal. Low signal was established as for the adipose tissue assay.
Activity of the treated samples was analyzed using the fluorometric method described in EXAMPLE 9 for SSAO/VAP-1 activity and EXAMPLE 10 for MAO-B.

[2] = test system: Hooded Wistar rat model of dopaminergic neurodegeneration; assay: Intranigral LPS-induced neuroinflammatory model, dopaminergic neuron counts; format: in vivo, Hooded Wistar male rats; details: unilateral LPS, 2 mg/kg i.p. daily for 2 weeks, t-test p<0.05, FIG. 5
Description: Hooded Wistar male rats weighing between 300-400 g were obtained from Adelaide Laboratory Animal Services.
Unilateral infusions: Rats receiving a unilateral injection of 2 μL of 1.5 mg/mL solution of LPS (O55:B5, Sigma) in the substantia nigra were anaesthetized with isofluorane and positioned in a stereotaxic frame. For all rats, holes were drilled into the skull above the appropriate targeted structures according to the following coordinates: −5.3 mm posterior; ±2.0 mm lateral; −8.0 mm ventral to bregma.
Immunohistochemical procedures: two weeks after the lesion, the rats were transcardially perfused with PBS followed by PFA 4%. Brains were post-fixed in PFA 4%, and coronal sections of 30 μm containing the substantia nigra were collected and washed 3×0.01 M phosphate-buffered saline at pH 7.4. (PBS) for 10 minutes. Dopaminergic neurons were stained with anti-tyrosine hydroxylase (TH) antibody 1:10000 and visualized using nickel-enhanced 3,3′-diaminobenzidine (DAB) and counted manually.

[3] = molecular target: T2, Muscle and Heart Tissue MAO-A (Mus musculus, UniProt Q64133); assay: Mouse muscle and heart tissue MAO-A activity after oral administration; format: in vivo
T2 construct: Skeletal muscle was pulverized in liquid nitrogen and then suspended in ice-cold HEPES buffered media; from tissue; host or cells: skeletal muscle and heart of C57BL/6J and mdx mice (mitochondrial extract)
T2 sequence (Q64133 1-526): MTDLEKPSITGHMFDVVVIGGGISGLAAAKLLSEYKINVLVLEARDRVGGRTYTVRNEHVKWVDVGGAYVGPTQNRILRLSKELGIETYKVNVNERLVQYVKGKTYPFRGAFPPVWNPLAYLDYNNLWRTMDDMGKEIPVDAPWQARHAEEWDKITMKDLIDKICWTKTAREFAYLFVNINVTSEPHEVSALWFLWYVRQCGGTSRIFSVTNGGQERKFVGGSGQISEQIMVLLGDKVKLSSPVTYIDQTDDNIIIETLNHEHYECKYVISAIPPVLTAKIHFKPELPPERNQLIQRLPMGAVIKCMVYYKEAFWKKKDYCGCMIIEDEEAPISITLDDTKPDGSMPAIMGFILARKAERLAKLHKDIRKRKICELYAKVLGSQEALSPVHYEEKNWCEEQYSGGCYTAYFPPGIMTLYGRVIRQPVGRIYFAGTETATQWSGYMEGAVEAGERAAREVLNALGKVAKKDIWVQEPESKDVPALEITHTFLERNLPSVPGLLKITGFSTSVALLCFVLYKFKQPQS
Description: Mice were orally administered the compound under study and sacrificed at various time points and abdominal fat, muscle and heart tissue collected.
Skeletal muscle was pulverized in liquid nitrogen and then suspended in ice-cold HEPES buffered media (20 mM HEPES, 0.8% w/v free-fatty acid bovine serum albumin (BSA), 75 mM sucrose, 10 mM EDTA, 215 mM D-mannitol, pH 7.4). Homogenized and then centrifuged at 2,500 rpm for 10 minutes at 4° C. Supernatant transferred and centrifuged at 10,000 rpm for 8 minutes. Supernatant discarded and the resultant pellet containing the mitochondrial extract re-suspended in 0.1 M sodium phosphate buffer solution (1:3 ratio).
Heart muscle was washed with PBS solution three times over ice. Homogenate and extract was then prepared as described for the skeletal muscle.
MAO-A activity was determined by using a selective MAO-B inhibitor mofegiline (at 30 nM) to establish the high signal and a mixture of specific MAO-A inhibitor (clorgyline) and mofegiline (at 30 nM) to determine the low signal.
Activity of the treated samples was analyzed using the fluorometric method described in EXAMPLE 9 for SSAO/VAP-1 activity, EXAMPLE 10 for MAO-B and EXAMPLE 11 for MAO-A activity (FIG. 8 and FIG. 9).

| Structure (SMILES) | duration of inhibition of MAO-B enzyme activity [1] | loss of dopaminergic neurons (TH-positive) in substantia nigra [2] | heart and muscle MAO-A activity ([3]; C57BL/6J mice, single oral dose, 4 and 24 hours after administration, FIG. 9) | muscle MAO-A activity ([3]; mdx mice (C57BL/10ScSn-Dmdmdx/J), oral, FIG. 11) |
| --- | --- | --- | --- | --- |
| NC/C(=C\F)C1Cc2ccccc2O1 (single isomer, unassigned; (-)) [PXS-5131, (−)-(E)-2-(2,3-Dihydrobenzofuran-2-Yl)-3-Fluoroprop-2-En-1-Amine Hydrochloride] | greater than 24 hours | significant protection from loss | – | – |
| N#Cc1ccc(OC/C(=C/F)CN)cc1 [Compound 1, (E)-4-((2-(aminomethyl)-3-fluoroallyl)oxy) benzonitrile] | – | – | no inhibitory effect | no inhibitory effect |

From US12428370B2, “Haloallylamine dual amine oxidase inhibitors” (Syntara Limited, priority 2020, dated 2025)
